Our source for the inhibition values is ChEMBL document CHEMBL4387741, “Optimization of novel reversible Bruton's tyrosine kinase inhibitors identified using Tethering-fragment-based screens” (Bioorg Med Chem, 2019).

Assay [1] concerns the target Ribosomal protein S6 kinase alpha-4 (Homo sapiens) (UniProt O75676). In words: Inhibition of wild-type human partial length C-terminal RPS6KA4 kinase domain 2 (M375 to T705 residues) expressed in mammalian expression system at 1 uM by Kinomescan method relative to control.
Assay [2] addresses Serine/threonine-protein kinase PLK1 (Homo sapiens) (UniProt P53350). The assay is described as follows: Inhibition of wild-type human partial length PLK1 (A33 to F325 residues) expressed in mammalian expression system at 1 uM by Kinomescan method relative to control.
Assay [3] has as its target Calcium/calmodulin-dependent protein kinase type II subunit gamma (Homo sapiens) (UniProt Q13555). In words: Inhibition of wild-type human partial length CAMK2G (R9 to A303 residues) expressed in bacterial expression system at 1 uM by Kinomescan method relative to control.
Assay [4] has as its target Phosphorylase b kinase gamma catalytic chain, skeletal muscle/heart isoform (Homo sapiens) (UniProt Q16816). In words: Inhibition of wild-type human full length PHKG1 (M1 to Y387 residues) expressed in bacterial expression system at 1 uM by Kinomescan method relative to control.
Assay [5] deals with Insulin-like growth factor 1 receptor (Homo sapiens) (UniProt P08069). In words: Inhibition of wild-type human partial length IGF1R (L972 to D1294 residues) expressed in bacterial expression system at 1 uM by Kinomescan method relative to control.
For assay [6], the target named is Receptor tyrosine-protein kinase erbB-4 (Homo sapiens) (UniProt Q15303). The assay is described as follows: Inhibition of wild-type human partial length ERBB4 (L690 to K994 residues) expressed in bacterial expression system at 1 uM by Kinomescan method relative to control.
In assay [7] the target is Serine/threonine-protein kinase Chk2 (Homo sapiens) (UniProt O96017). The assay is described as follows: Inhibition of wild-type human partial length CHEK2 (S253 to E574 residues) expressed in bacterial expression system at 1 uM by Kinomescan method relative to control.
Assay [8] addresses Serine/threonine-protein kinase/endoribonuclease IRE1 (Homo sapiens) (UniProt O75460). The assay is described as follows: Inhibition of wild-type human partial length ERN1 (S551 to E852 residues) expressed in mammalian expression system at 1 uM by Kinomescan method relative to control.
The target in assay [9] is Ephrin type-A receptor 1 (Homo sapiens) (UniProt P21709). In words: Inhibition of wild-type human partial length EPHA1 (V588 to I913 residues) expressed in bacterial expression system at 1 uM by Kinomescan method relative to control.
The target in assay [10] is Serine/threonine-protein kinase Nek11 (Homo sapiens) (UniProt Q8NG66). In words: Inhibition of wild-type human partial length NEK11 (M1 to E313 residues) expressed in mammalian expression system at 10 uM by Kinomescan method relative to control.
For assay [11], the target named is Calcium/calmodulin-dependent protein kinase type 1G (Homo sapiens) (UniProt Q96NX5). The assay is described as follows: Inhibition of wild-type human partial length CAMK1G (M1 to A342 residues) expressed in bacterial expression system at 10 uM by Kinomescan method relative to control.
Assay [12] addresses Protein kinase C iota type (Homo sapiens) (UniProt P41743). The assay is described as follows: Inhibition of wild-type human partial length PRKCI (H215 to V587 residues) expressed in mammalian expression system at 10 uM by Kinomescan method relative to control.
Assay [13] has as its target Transient receptor potential cation channel subfamily M member 6 (Homo sapiens) (UniProt Q9BX84). The assay is described as follows: Inhibition of wild-type human partial length TRPM6 (Q1723 to I1998 residues) expressed in mammalian expression system at 10 uM by Kinomescan method relative to control.
The target in assay [14] is Myosin-IIIa (Homo sapiens) (UniProt Q8NEV4). The assay is described as follows: Inhibition of wild-type human partial length MYO3A (M1 to K338 residues) expressed in bacterial expression system at 10 uM by Kinomescan method relative to control.
In assay [15] the target is TGF-beta receptor type-2 (Homo sapiens) (UniProt P37173). The assay is described as follows: Inhibition of wild-type human partial length TGFBR2 (I218 to K567 residues) expressed in bacterial expression system at 10 uM by Kinomescan method relative to control.
Assay [16] concerns the target NUAK family SNF1-like kinase 1 (Homo sapiens) (UniProt O60285). The assay is described as follows: Inhibition of wild-type human partial length ARK5 (E25 to I332 residues) expressed in bacterial expression system at 10 uM by Kinomescan method relative to control.
Assay [17] concerns the target Phosphatidylinositol 4-phosphate 3-kinase C2 domain-containing subunit beta (Homo sapiens) (UniProt O00750). The assay is described as follows: Inhibition of wild-type human partial length PIK3C2B (M1 to L1634 residues) expressed in mammalian expression system at 10 uM by Kinomescan method relative to control.
The test system of assay [18] is Epidermal growth factor receptor (Homo sapiens), P00533 [G719S]. The assay is described as follows: Inhibition of human partial length EGFR G719S mutant (R669 to V1011 residues) expressed in bacterial expression system at 10 uM by Kinomescan method relative to control.
The target of assay [19] is Casein kinase II subunit alpha (Homo sapiens) (UniProt P68400). In words: Inhibition of wild-type human full length CSNK2A1 (M1 to Q391 residues) expressed in mammalian expression system at 10 uM by Kinomescan method relative to control.
Assay [20] deals with Inhibitor of nuclear factor kappa-B kinase subunit epsilon (Homo sapiens) (UniProt Q14164). The assay is described as follows: Inhibition of wild-type human full length IKK-epsilon (M1 to V716 residues) expressed in mammalian expression system at 10 uM by Kinomescan method relative to control.
The target in assay [21] is Tyrosine-protein kinase JAK1 (Homo sapiens) (UniProt P23458). The assay is described as follows: Inhibition of wild-type human partial length JAK1 JH1 catalytic domain (V856 to K1154 residues) expressed in bacterial expression system at 10 uM by Kinomescan method relative to control.
The target in assay [22] is Mitogen-activated protein kinase 8 (Homo sapiens) (UniProt P45983). The assay is described as follows: Inhibition of wild-type human full length JNK1 (M1 to Q384 residues) expressed in mammalian expression system at 10 uM by Kinomescan method relative to control.
Assay [23] addresses Phosphorylase b kinase gamma catalytic chain, skeletal muscle/heart isoform (Homo sapiens) (UniProt Q16816). In words: Inhibition of wild-type human full length PHKG1 (M1 to Y387 residues) expressed in bacterial expression system at 10 uM by Kinomescan method relative to control.
The test system of assay [24] is Tyrosine-protein kinase ABL1 (Homo sapiens), P00519 [H396P]. In words: Inhibition of human phosphorylated ABL1 H396P mutant (S229 to K512 residues) expressed in mammalian expression system at 10 uM by Kinomescan method relative to control.
The target in assay [25] is Non-receptor tyrosine-protein kinase TNK1 (Homo sapiens) (UniProt Q13470). In words: Inhibition of wild-type human full length TNK1 (M1 to P661 residues) expressed in bacterial expression system at 10 uM by Kinomescan method relative to control.
Assay [26] concerns the target Leukocyte tyrosine kinase receptor (Homo sapiens) (UniProt P29376). In words: Inhibition of wild-type human partial length LTK (P422 to S744 residues) expressed in bacterial expression system at 10 uM by Kinomescan method relative to control.
Assay [27] has as its target Cyclin-dependent kinase 18 (Homo sapiens) (UniProt Q07002). In words: Inhibition of wild-type human full length PCTK3 (M3 to F474 residues) expressed in bacterial expression system at 10 uM by Kinomescan method relative to control.

Phosphorylase b kinase gamma catalytic chain, skeletal muscle/heart isoform (Homo sapiens), sequence (Q16816 whole entry, looked up, the tested form may be a part, canonical isoform): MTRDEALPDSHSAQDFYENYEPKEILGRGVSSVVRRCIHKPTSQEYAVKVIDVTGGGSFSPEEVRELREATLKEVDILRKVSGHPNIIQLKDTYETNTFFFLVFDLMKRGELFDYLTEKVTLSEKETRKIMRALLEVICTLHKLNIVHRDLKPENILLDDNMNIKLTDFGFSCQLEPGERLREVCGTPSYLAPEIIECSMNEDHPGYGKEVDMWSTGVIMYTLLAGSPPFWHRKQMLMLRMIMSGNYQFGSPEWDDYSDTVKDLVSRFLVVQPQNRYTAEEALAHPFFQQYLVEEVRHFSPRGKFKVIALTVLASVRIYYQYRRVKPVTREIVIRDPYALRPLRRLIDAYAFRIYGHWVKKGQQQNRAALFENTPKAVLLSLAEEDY
Non-receptor tyrosine-protein kinase TNK1 (Homo sapiens), sequence (Q13470 whole entry, the tested form may be a part): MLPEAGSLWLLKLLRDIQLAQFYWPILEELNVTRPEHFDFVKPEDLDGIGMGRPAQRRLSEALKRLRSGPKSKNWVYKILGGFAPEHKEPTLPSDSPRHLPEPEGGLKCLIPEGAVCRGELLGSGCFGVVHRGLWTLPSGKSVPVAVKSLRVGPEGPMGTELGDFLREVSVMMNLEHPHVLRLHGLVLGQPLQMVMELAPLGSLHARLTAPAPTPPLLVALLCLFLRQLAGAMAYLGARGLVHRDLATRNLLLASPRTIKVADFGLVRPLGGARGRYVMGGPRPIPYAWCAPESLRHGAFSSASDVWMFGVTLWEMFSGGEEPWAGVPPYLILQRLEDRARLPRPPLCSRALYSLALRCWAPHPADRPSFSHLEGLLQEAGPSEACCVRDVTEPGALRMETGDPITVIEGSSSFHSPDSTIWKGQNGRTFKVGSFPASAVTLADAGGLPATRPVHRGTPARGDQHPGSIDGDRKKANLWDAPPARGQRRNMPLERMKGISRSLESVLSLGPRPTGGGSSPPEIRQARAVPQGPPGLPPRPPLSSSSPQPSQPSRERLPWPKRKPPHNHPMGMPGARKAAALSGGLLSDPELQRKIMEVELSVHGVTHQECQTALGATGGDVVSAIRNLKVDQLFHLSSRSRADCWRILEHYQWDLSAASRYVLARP
Receptor tyrosine-protein kinase erbB-4 (Homo sapiens), sequence (Q15303 whole entry, the tested form may be a part): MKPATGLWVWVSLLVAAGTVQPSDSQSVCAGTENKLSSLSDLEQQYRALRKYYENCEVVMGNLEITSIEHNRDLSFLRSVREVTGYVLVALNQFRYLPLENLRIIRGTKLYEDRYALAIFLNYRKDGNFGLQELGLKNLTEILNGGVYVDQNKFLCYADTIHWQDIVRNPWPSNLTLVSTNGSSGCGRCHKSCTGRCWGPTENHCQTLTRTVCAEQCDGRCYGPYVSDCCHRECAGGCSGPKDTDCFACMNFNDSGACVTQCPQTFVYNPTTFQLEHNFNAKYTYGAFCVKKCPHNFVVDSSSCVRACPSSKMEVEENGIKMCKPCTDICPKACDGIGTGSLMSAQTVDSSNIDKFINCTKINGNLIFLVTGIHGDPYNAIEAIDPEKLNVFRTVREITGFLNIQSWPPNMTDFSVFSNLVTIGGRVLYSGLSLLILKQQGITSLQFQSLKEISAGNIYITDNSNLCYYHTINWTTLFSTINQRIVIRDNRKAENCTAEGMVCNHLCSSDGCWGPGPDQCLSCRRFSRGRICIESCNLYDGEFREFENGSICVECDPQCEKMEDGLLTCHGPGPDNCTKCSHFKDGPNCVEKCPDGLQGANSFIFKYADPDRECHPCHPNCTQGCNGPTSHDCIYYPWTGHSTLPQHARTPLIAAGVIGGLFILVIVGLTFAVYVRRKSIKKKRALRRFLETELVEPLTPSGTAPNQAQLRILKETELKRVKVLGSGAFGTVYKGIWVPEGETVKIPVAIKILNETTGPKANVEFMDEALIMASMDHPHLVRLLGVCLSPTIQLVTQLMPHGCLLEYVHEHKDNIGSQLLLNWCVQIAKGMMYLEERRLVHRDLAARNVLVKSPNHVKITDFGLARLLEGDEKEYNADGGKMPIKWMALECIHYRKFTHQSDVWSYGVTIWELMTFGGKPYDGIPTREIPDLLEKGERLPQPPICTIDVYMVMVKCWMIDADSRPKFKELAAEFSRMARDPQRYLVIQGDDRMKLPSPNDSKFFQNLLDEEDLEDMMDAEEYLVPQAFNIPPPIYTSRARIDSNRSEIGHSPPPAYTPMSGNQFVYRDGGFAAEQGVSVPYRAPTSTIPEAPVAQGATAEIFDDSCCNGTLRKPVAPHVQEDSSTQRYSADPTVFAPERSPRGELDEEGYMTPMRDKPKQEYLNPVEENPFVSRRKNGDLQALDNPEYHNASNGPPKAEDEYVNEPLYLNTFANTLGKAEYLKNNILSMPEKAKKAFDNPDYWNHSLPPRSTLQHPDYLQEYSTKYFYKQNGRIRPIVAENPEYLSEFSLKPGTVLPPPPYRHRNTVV
Epidermal growth factor receptor (Homo sapiens), P00533 [G719S], sequence (P00533 whole entry G719S, the tested form may be a part): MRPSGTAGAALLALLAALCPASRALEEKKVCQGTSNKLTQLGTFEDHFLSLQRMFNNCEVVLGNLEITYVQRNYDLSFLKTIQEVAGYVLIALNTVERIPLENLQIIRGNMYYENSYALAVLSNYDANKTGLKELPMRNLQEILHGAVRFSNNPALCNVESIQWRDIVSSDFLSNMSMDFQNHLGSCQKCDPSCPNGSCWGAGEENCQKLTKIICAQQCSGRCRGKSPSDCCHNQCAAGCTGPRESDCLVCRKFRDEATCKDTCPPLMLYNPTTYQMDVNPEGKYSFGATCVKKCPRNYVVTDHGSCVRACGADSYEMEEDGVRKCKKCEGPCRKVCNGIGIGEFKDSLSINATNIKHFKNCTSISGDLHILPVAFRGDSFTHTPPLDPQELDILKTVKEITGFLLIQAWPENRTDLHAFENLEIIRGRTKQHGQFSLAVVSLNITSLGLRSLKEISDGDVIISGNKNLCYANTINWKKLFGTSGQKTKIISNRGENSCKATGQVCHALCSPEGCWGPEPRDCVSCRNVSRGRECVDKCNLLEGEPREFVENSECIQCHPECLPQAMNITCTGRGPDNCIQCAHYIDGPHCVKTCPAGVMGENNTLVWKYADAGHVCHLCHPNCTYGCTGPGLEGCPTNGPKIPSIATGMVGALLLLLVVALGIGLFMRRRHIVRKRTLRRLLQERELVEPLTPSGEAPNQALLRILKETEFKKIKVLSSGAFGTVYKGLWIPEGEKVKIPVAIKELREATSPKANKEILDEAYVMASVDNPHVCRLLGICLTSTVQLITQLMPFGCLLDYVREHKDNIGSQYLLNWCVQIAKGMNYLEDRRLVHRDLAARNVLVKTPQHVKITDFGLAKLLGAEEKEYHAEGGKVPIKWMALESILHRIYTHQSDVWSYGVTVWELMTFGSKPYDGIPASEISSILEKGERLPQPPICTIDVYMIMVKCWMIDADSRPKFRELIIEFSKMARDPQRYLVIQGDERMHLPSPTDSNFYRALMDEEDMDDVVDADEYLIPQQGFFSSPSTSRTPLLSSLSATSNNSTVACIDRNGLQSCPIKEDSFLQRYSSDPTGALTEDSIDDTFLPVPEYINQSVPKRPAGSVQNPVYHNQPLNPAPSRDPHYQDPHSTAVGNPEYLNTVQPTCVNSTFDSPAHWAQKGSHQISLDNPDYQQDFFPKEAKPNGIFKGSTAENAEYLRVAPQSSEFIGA
Insulin-like growth factor 1 receptor (Homo sapiens), sequence (P08069 31-736 limits assumed): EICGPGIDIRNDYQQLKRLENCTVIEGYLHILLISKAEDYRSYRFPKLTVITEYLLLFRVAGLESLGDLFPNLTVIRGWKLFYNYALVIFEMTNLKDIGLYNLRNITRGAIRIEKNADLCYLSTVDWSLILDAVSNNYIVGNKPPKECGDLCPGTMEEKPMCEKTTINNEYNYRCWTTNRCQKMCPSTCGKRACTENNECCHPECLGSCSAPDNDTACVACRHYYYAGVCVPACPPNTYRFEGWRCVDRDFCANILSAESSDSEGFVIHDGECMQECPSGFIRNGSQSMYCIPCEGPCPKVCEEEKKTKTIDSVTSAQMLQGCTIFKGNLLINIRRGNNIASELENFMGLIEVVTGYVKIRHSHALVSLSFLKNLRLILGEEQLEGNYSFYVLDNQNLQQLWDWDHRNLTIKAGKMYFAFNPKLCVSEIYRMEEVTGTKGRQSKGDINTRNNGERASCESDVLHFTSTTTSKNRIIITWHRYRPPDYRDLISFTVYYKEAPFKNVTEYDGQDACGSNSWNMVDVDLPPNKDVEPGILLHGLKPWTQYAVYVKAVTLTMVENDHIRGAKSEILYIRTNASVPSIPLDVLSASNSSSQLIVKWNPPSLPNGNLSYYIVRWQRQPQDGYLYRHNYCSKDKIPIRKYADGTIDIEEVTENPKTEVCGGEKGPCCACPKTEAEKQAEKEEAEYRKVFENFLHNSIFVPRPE
Insulin-like growth factor 1 receptor (Homo sapiens), sequence (P08069 741-1367 limits assumed): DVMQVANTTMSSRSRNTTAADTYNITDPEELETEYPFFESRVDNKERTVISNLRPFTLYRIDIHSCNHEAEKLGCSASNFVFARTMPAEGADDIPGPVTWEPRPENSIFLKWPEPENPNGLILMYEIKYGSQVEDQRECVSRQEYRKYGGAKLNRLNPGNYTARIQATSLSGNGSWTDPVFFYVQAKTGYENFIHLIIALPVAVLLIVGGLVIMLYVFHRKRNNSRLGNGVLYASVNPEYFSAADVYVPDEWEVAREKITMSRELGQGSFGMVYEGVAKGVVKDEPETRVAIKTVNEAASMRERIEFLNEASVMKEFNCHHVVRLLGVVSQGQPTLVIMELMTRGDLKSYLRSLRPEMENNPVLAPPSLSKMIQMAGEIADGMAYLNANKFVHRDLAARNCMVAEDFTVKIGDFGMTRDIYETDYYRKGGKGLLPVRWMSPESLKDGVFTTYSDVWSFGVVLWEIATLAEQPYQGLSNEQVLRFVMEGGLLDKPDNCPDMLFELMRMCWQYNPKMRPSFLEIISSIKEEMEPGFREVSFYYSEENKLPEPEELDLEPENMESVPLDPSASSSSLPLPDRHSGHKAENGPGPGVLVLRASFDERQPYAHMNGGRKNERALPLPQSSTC

The term inhibition denotes the share of the control response that was lost under treatment. As for `O=C(Nc1cccc([C@@H]2CN(c3ncnc4[nH]ccc34)CCN2CCO)c1)Nc1c(F)cccc1N1CCCC1`, the inhibition in assay [1] is 97%; in assay [2], 86%; in assay [3] it was 99%; in assay [4], 98%; in assay [5], 100%; in assay [6] it was 100%. The inhibition in [7] is 69%; in assay [8], 56%; in [9], 100%.
As for `O=C(Nc1cccc([C@H]2CCCN(c3ncnc4[nH]ccc34)C2)c1)Nc1ccccc1N1CCCC1`, the inhibition in [10] is 69%; in assay [11] it was 85%; in [12] it was 51%; in assay [13] it was 69%; in assay [14] it was 52%; in [15], 100%. Further, the inhibition in assay [16] stood at 25%; in [17] it was 51%; in [18], 81%; in [19], 67%; in assay [20] it was 67%; in [21], 29%. The inhibition in [22] came to 42%; in assay [23] it was 91%; in [24] it was 51%; in assay [25], 65%; in assay [26], 100%; in assay [27], 70%.
